Results: article PMC6265740, “Biochemical and Anti-Triple Negative Metastatic Breast Tumor Cell Properties of Psammaplins” (Marine Drugs, 2018)
“Also recorded” adds a separate entry of the source.

Legend:
[1] = test system: HDAC; assay: MDA-MB-435 cell-based HDAC assay (HDAC-Glo); settings: MDA-MB-435 cells, 30 min incubation, n = 6 pooled from two experiments
Procedure: Test compounds were added at specified concentrations to exponentially grown cells plated in 96-well plates. After 30 min incubation, the HDAC activity was determined using a commercial kit (HDAC-Glo™, Promega, Madison, WI, USA) and normalized to that of the dimethyl sulfoxide (DMSO) solvent control.
Exponentially grown cells were seeded at the density of 5000 cells/well into 96-well plates (Corning, Corning, NY, USA) and incubated overnight. Compounds dissolved in DMSO were added to achieve the specified final concentrations (total volume: 100 μL, DMSO: 0.5%). The incubation continued for 30 min at 37 °C and the HDAC activity determined using a commercial luminescent assay (HDAC-Glo™, Promega, Madison, WI, USA).

[2] = test system: HIF-1; assay: T47D cell-based reporter assay (pHRE-luc) for HIF-1 activity; set-up: species or system human; settings: for normalized ratio of pHRE-luc/pGL3-control: T47D
Procedure: Cellular adaptation to hypoxia (low oxygen tension) is primarily mediated via the transcription factor hypoxia-inducible factor-1 (HIF-1), that regulates oxygen homeostasis by activating the expression of genes that increase oxygen availability and those that decrease oxygen consumption. […] In a T47D cell-based reporter assay, a lipid extract sample of the sponge Dendrilla lacunosa activated HIF-1 by 3.56-fold (NIH collection No. C025691, 10 μg mL^−1). Bioassay-guided fractionation of the extract sample (2.6 g) and chemical structure elucidation afforded five known compounds psammaplin E (1), (E,Z)-psammaplin A (2), (E,E)-psammaplin K (3), (E,E)-psammaplin A (4), and bisaprasin (5). To determine the effects of 1–5 on HIF-1 activity, concentration-response studies were performed in a T47D cell-based reporter assay (Figure 1B). An iron chelator (1,10-phenanthroline, 10 μM) was included as a positive control. Compounds 1–4 activated HIF-1 in a biphasic manner. […] Hypoxia (1% O2) and chemical hypoxia (iron chelators or transition metals) represent two common stimuli that activate HIF-1 [24, 25, 26]. Further studies were performed to determine the effects of 1–5 on HIF-1 activity in the presence of other stimuli (1,10-phenanthroline, Figure 1C; hypoxia, Figure 1D). While 1–4 acted synergistically with 1,10-phenanthroline and hypoxia to activate HIF-1, a biphasic pattern of activation similar to that in the absence of stimulus […] was observed. […] Previous studies reported that psammaplins inhibit histone deacetylase (HDAC) enzymes. To determine if HDAC inhibition non-specifically activates HIF-1, concentration-response studies were conducted in T47D cells transfected with the pGL3-control plasmid. […] One possible scenario is that these compounds incur significant amount of cellular stress at higher concentrations, leading to the inhibition of gene expression in general.
Figure 1 Concentration-dependent biphasic effects of 1–4 on HIF-1 activation. (A) Structures of psammaplins isolated from Dendrilla lacunosa. (B) Concentration-response results of 1–5 in T47D cells transfected with pHRE-luc for HIF-1 activity. Test compounds were added at the increasing concentrations of 0.1, 0.3, 1, 3, 10, and 30 µM, as specified. The positive control 1,10-phenanthroline (1,10-phen) was used at 10 µM. Data shown are average ± standard deviation (n = 3). (C) Similar to described in (B) except that the pHRE-luc transfected T47D cells were exposed to test compounds in the presence of 10 µM 1,10-phen, and the data were normalized to the positive control (1,10-phen). (D) Similar to described in (C) except that hypoxic exposure (1% O2: 5% CO2: 94% N2, 16 h) was applied in place of 1,10-phen. (E) As described in (B) except that T47D cells were transfected with the pGL3-control construct. An asterisk “*” indicates p < 0.05 when compared to the controls (“Media” for B, D, and E; and “1,10-phen” for C).
To monitor HIF-1 activity, T47D cells were transfected with the pHRE3-TK-Luc construct and the cell-based luciferase reporter assay was performed as described. Cells were exposed to test compounds in the absence and presence of 1,10-phenanthroline (10 μM) or hypoxic conditions (1% O2: 5% CO2: 94% N2) for 16 h. The cells were lysed and luciferase activity determined with a commercial kit (Promega, Madison, WI, USA). For the cell-based control reporter assay, T47D cells were transfected with the pGL3-control construct (Promega, Madison, WI, USA), exposed to test compounds for 16 h, and the luciferase reporter assay performed as described.

[3] = test system: VEGF protein; assay: ELISA of cellular and secreted VEGF proteins in T47D cells; type: cell-based, human; settings: normalized to cellular proteins
Description: (§1) Around 100 genes have been identified as HIF-1 target genes that encode proteins involved in various aspects of cellular physiology. While most of these genes are regulated in a cell type-specific manner, some are induced upon HIF-1 activation in most cell types. Based on availability and potency, compound 4 (a stereoisomer of 2) was selected for follow-up studies. The effects of 4 on the expression of HIF-1 target genes cyclin dependent kinase inhibitor 1A (CDKN1A) and vascular endothelial growth factor A (VEGFA) were examined by quantitative real time RT-PCR (Figure 2). The HIF-1 activator 1,10-phen (10 μM) and the pan-HDAC inhibitor TSA (0.1 and 1 μM, respectively) were included as positive controls. In T47D cells, 4 and TSA each increased the levels of CDKN1A mRNA in a concentration-dependent manner (2.9-fold for 4 at 10 μM and 7.2-fold for TSA at 1 μM, Figure 2A). In contrast, neither 4 nor TSA exerted greater than 20% effect on the levels of VEGF mRNA (Figure 2B). The gene VEGF encodes vascular endothelial growth factor A (a potent angiogenic factor) and agents that inhibit VEGF are in clinical use for cancer. The expression of cellular and secreted VEGF proteins was examined in T47D cells by ELISA assay.
Figure 2 Effects of 4 and trichostatin A (TSA) on HIF-1 target gene expression. T47D cells were exposed to 4 and TSA at the specified concentrations for 16 h. The compound 1,10-phen (10 µM) was included as a positive control. The levels of cyclin dependent kinase inhibitor 1A (CDKN1A) (A) and vascular endothelial growth factor (VEGF) (B) mRNA following treatments were determined by quantitative real time RT-PCR. Relative levels of target gene mRNA normalized to an internal control (18S rRNA) are shown as average ± standard deviation (n = 3, one representative experiment). The levels of cellular (C) and secreted VEGF protein (D) were determined by ELISA and normalized to the amount of cellular proteins. Data shown are average + standard deviation (n = 3). An asterisk “*” indicates p < 0.05 when compared to the media control.
(§2) The effects of test samples on HIF-1 target gene expression were assessed in T47D cells. To determine the levels of CDKN1A and VEGF mRNA, quantitative real-time RT-PCR was performed as described. To determine the levels of cellular and secreted VEGF proteins, T47D cells were exposed to compounds as described, the levels of VEGF proteins in the conditioned medium and cell lysate samples determined by ELISA [21], the amount of proteins in the cell lysate samples quantified using a micro BCA assay kit (Thermo Fisher Scientific, Rockford, IL, USA), and the level of VEGF proteins normalized to that of cellular proteins.

[4] = test system: CDKN1A mRNA; assay: Quantitative real time RT-PCR of CDKN1A mRNA in T47D cells; type: cell-based, human; settings: 16 h
Description: Around 100 genes have been identified as HIF-1 target genes that encode proteins involved in various aspects of cellular physiology. While most of these genes are regulated in a cell type-specific manner, some are induced upon HIF-1 activation in most cell types. Based on availability and potency, compound 4 (a stereoisomer of 2) was selected for follow-up studies. The effects of 4 on the expression of HIF-1 target genes cyclin dependent kinase inhibitor 1A (CDKN1A) and vascular endothelial growth factor A (VEGFA) were examined by quantitative real time RT-PCR (Figure 2). The HIF-1 activator 1,10-phen (10 μM) and the pan-HDAC inhibitor TSA (0.1 and 1 μM, respectively) were included as positive controls. […]
(§3) Figure 2 Effects of 4 and trichostatin A (TSA) on HIF-1 target gene expression. […] The levels of cyclin dependent kinase inhibitor 1A (CDKN1A) (A) and vascular endothelial growth factor (VEGF) (B) mRNA following treatments were determined by quantitative real time RT-PCR. […] The levels of cellular (C) and secreted VEGF protein (D) were determined by ELISA and normalized to the amount of cellular proteins. […]
The effects of test samples on HIF-1 target gene expression were assessed in T47D cells. To determine the levels of CDKN1A and VEGF mRNA, quantitative real-time RT-PCR was performed as described. […]

[5] = test system: BoM spheroids; assay: Cultrex 3D spheroid cell invasion assay; type: cell-based, human; settings: for invasion of BoM spheroids into the extracellular matrix: 96 h (T96), 4 and TSA at 48 h proliferation IC50
Procedure: In order to form metastatic lesions, metastasis-initiating tumor cells must invade and intravasate into the lymphatic vasculature and/or blood vessels. Psammaplins were evaluated in a Cultrex® 3-D cell invasion assay that monitors the invasion and migration of tumor cells grown as spheroids, which closely model in vivo pathophysiological conditions.
Figure 5 Inhibition of bone metastatic BoM cell invasion. Tumor cell spheroids formed in a special spheroid formation extracellular matrix (ECM) were embedded in an invasion matrix containing 10% fetal bovine serum (FBS) in the presence and absence of compounds at the specified concentrations. Four days later (T96), cell invasion was recorded microscopically (the bar at the bottom right represents 100 µm).
The 3D spheroid cell invasion assay was performed using a commercial kit, following the manufacturer’s instructions (Cultrex® 3D Spheroid Cell Invasion Assay, Trevigen, Gaithersburg, MD, USA). Briefly, exponentially grown MDA-MB-231, LM, BoM, and BrM cells were trypsinized, collected, and resuspended in serum-free DMEM/F12 media. For spheroid formation, 3000 cells were added in a volume of 50 µL serum-free DMEM/F12 media with 1× spheroid formation solution/well into a pre-cooled 96-well plate. The plate was centrifuged at 100× g for 5 min at 4 °C, incubated at 37 °C for 24 h, and the spheroids imaged using an Axiovert 40 CFL microscope (Zeiss, Oberkochen, Germany). The plate was placed on ice, the invasion mix added in a volume of 50 µL/well, centrifuged at 350× g for 5 min at 4 °C, and incubated at 37 °C for 1 h. Test compounds and controls were diluted to two times the final concentrations in DMEM/F12 media supplemented with FBS (10%) and antibiotics, and added in a volume of 100 µL/well. The incubation continued for another 4 days at 37 °C and the cells/spheroids imaged (T96).

[6] = test system: VEGF mRNA; assay: Quantitative real time RT-PCR of VEGF mRNA in T47D cells; type: cell-based, human; settings: 16 h, concentrations tested
Description: as §1, with “The gene VEGF encodes vascular endothelial growth factor A (a potent angiogenic factor) and agents that inhibit VEGF are in clinical use for cancer. The expression of cellular and secreted VEGF proteins was examined in T47D cells by ELISA assay.” left out
as §3, §2

[7] = test system: T47D, MDA-MB-231, LM, BoM, BrM cells; assay: Clonogenic assay; type: cell-based, human; settings: 24 h exposure, 10 days; 1 µM paclitaxel and TSA, 10 µM 1–5
Procedure: The effects of psammaplins on the colony-forming ability of single cells were assessed in a clonogenic assay. Cells seeded at low density were exposed to test compounds at the specified concentrations for 24 h. The conditioned media were replaced with growth media and the colonies formed from surviving single cells in 10 days.
Figure 4 Effects of 1–5 and TSA (trichostatin A) on colony formation. Cells plated at low density were exposed to compounds (24 h) at specified concentrations (1 µM for paclitaxel and TSA, and 10 µM for 1–5). After a period of ten days, the cells were fixed and stained.
For the clonogenic assay, exponentially grown cells were seeded at the density of 1000 cells/well into 6-well plates (Cellstar®, Greiner Bio-One GmbH, Kremsmünster, Austria) and incubated at 37 °C for 4 h to allow the cells to adhere. Compound addition was similar as above. After 24 h, the compound-containing conditioned media were replaced with fresh medium containing FBS (10%) and antibiotics. The incubation continued for another 10 days with a change of fresh medium every 5 days, the cells were fixed with methanol and stained with crystal violet (1 mg/mL in 20% ethanol), and the images were acquired with a Kodak digital camera.

Row | Compound | IC50 [1] [µM] | VEGF expression, cellular protein [3] | VEGF expression, secreted protein [3] | invasion of BoM spheroids into the extracellular matrix [5] | effect on the levels of VEGF mRNA [6] [%] | also measured
1 | CC(/C=C/C(=O)NO)=C\[C@@H](C)C(=O)c1ccc(N(C)C)cc1 [TSA, trichostatin A] | – | None of the HDAC inhibitors examined (4 and TSA) increased VEGF protein levels | None of the HDAC inhibitors examined (4 and TSA) increased VEGF protein levels | inhibited the invasion of BoM spheroids | ≤ 20 | increase in CDKN1A mRNA level ([4]; 1 μM): 7.2 fold
2 | CC(=O)O[C@H]1C(=O)[C@@]2(C)[C@H]([C@H](OC(=O)c3ccccc3)[C@]3(O)C[C@H](OC(=O)[C@H](O)[C@@H](NC(=O)c4ccccc4)c4ccccc4)C(C)=C1C3(C)C)[C@]1(OC(C)=O)CO[C@@H]1C[C@@H]2O [paclitaxel] | – | – | – | – | – | colony formation [7]: blocked colony formation in all cell lines; size of the spheroids ([5]; 96 h, in comparison to the HDAC inhibitors): more pronounced decrease in the size of the spheroids

The next lines start with results.

Row | IC50 [1] [µM] | Compound | VEGF expression, cellular protein [3] | VEGF expression, secreted protein [3] | invasion of BoM spheroids into the extracellular matrix [5] | effect on the levels of VEGF mRNA [6] [%] | also measured
3 | 0.038 | O=C(NCCSSCCNC(=O)/C(Cc1cc(O)c(O)c(Br)c1)=N/O)/C(Cc1ccc(O)c(Br)c1)=N/O [Compound 3, (E,E)-psammaplin K] | – | – | – | – | HIF-1 activation (highest level) ([2]; T47D pHRE-luc, 10 μM, 16 h, no stimulus, n = 3): 10.15 ± 0.66 fold; normalized ratio of pHRE-luc/pGL3-control ([2]; 10 μM): 2.38 fold
4 | 0.037 | O=C(NCCSSCCNC(=O)/C(Cc1ccc(O)c(Br)c1)=N/O)/C(Cc1ccc(O)c(Br)c1)=N/O [Compound 4, (E,E)-psammaplin A] | None of the HDAC inhibitors examined (4 and TSA) increased VEGF protein levels | None of the HDAC inhibitors examined (4 and TSA) increased VEGF protein levels | inhibited the invasion of BoM spheroids; also recorded: inhibited this invasion | ≤ 20 | increase in CDKN1A mRNA level ([4]; 10 μM): 2.9 fold; HIF-1 activation (highest level) ([2]; T47D pHRE-luc, 3 μM, 16 h, no stimulus, n = 3): 11.01 ± 0.71 fold; normalized ratio of pHRE-luc/pGL3-control ([2]; 3 μM): 2.30 fold
5 | 0.948 | O=C(NCCSSCCNC(=O)/C(Cc1cc(Br)c(O)c(-c2cc(C/C(=N\O)C(=O)NCCSSCCNC(=O)/C(Cc3ccc(O)c(Br)c3)=N/O)cc(Br)c2O)c1)=N/O)/C(Cc1ccc(O)c(Br)c1)=N/O [Compound 5, bisaprasin] | – | – | – | – | HIF-1 activation ([2]; T47D pHRE-luc, 30 μM, 16 h, no stimulus, n = 3): 2.17 ± 0.13 fold; effect on HIF-1 activity in the presence of other stimuli ([2]; T47D pHRE-luc, with 1,10-phenanthroline (10 µM) or hypoxia (1% O2), 16 h): inhibited HIF-1 activation at higher concentrations
